Where a SMILES comes first, the peptide text is derived from it.
Key:
mGLP-1R = target: T1, mGLP-1R (Mus musculus, UniProt O35659); test: GLP-1R agonist activity, cAMP in transfected HEK293 cells; type: cell-based; conditions: HEK293 cells transfected with GLP-1R, cAMP, 20 min incubation; read-out: mGLP-1R EC50
T1 construct: expressed in transfected cells; host or cells: HEK293
T1 sequence (O35659 22-463): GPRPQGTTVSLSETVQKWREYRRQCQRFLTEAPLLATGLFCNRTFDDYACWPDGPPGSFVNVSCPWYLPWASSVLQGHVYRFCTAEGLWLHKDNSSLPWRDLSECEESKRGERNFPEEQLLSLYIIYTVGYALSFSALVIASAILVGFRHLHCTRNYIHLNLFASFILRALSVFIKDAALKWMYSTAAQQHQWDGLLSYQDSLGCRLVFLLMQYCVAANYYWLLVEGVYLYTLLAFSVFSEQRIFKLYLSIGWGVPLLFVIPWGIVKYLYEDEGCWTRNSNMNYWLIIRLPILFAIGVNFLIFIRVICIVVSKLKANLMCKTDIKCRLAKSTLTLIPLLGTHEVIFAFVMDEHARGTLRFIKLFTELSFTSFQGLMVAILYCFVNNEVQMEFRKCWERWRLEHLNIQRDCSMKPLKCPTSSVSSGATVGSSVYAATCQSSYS

mGIPR = target: T2, mGIPR (Mus musculus, UniProt Q0P543); test: GIPR agonist activity, cAMP in transfected HEK293 cells; type: cell-based; conditions: HEK293 cells transfected with GIPR, cAMP, 20 min incubation; read-out: mGIPR EC50
T2 construct: expressed in transfected cells; host or cells: HEK293
T2 sequence (Q0P543 19-460): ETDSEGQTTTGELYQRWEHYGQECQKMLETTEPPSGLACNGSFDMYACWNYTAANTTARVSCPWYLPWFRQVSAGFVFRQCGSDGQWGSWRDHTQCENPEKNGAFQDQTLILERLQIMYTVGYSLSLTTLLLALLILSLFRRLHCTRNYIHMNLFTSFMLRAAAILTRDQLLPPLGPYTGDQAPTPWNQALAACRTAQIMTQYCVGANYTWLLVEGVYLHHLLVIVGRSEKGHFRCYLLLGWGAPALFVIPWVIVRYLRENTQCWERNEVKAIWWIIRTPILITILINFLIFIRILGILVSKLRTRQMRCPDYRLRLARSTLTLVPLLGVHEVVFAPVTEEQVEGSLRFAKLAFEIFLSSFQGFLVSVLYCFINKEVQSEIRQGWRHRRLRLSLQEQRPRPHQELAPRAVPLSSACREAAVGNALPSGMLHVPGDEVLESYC
Experimental: HEK293 cells were co-transfected with cDNA encoding GLP-1R or GIPR. In a test for determining the compound, the cells were inoculated in a 96-well plate 2 h in advance, the polypeptide compound was dissolved with DMSO, and diluted to different multiples with a culture medium containing 0.1% bovine serum albumin and added to the co-transfected cells.

Structure (SMILES)	EC50 (mGLP-1R) [pM]	EC50 (mGIPR) [pM]
CC[C@H](C)[C@H](NC(=O)[C@H](CC(C)C)NC(=O)[C@H](Cc1c[nH]c2ccccc12)NC(=O)[C@H](CCC(N)=O)NC(=O)[C@@H](NC(=O)[C@H](Cc1ccccc1)NC(=O)[C@H](C)NC(=O)[C@H](CCCCNC(=O)COCCOCCNC(=O)COCCOCCNC(=O)CC[C@H](NC(=O)CCCCCCCCCCCCCCCCC(=O)O)C(=O)O)NC(=O)[C@H](CCC(N)=O)NC(=O)[C@H](C)NC(=O)[C@@H](NC(=O)[C@H](CCCCN)NC(=O)[C@H](CC(=O)O)NC(=O)[C@H](CC(C)C)NC(=O)C1(NC(=O)[C@@H](NC(=O)[C@H](CO)NC(=O)[C@H](Cc2ccc(O)cc2)NC(=O)[C@H](CC(=O)O)NC(=O)[C@H](CO)NC(=O)[C@@H](NC(=O)[C@H](Cc2ccccc2)NC(=O)[C@@H](NC(=O)CNC(=O)[C@H](CCC(=O)O)NC(=O)C(C)(C)NC(=O)[C@@H](N)Cc2ccc(O)cc2)[C@@H](C)O)[C@@H](C)O)[C@@H](C)CC)CCCC1)[C@@H](C)CC)C(C)C)C(=O)N[C@@H](C)C(=O)NCC(=O)NCC(=O)N1CCC[C@H]1C(=O)N[C@@H](CO)C(=O)N[C@@H](CO)C(=O)NCC(=O)N[C@@H](C)C(=O)N1CCC[C@H]1C(=O)N1CCC[C@H]1C(=O)N1CCC[C@H]1C(=O)N[C@@H](CO)C(N)=O [ID NO: 10]	8.89	8.11
CCCCCCCCCCCCCCCC(=O)N[C@@H](CCC(=O)NCCCC[C@H](NC(=O)[C@H](CCC(N)=O)NC(=O)[C@H](C)NC(=O)[C@@H](NC(=O)[C@H](CCCCN)NC(=O)[C@H](CC(=O)O)NC(=O)[C@H](CC(C)C)NC(=O)[C@H](C)NC(=O)[C@@H](NC(=O)[C@H](CO)NC(=O)[C@H](Cc1ccc(O)cc1)NC(=O)[C@H](CC(=O)O)NC(=O)[C@H](CO)NC(=O)[C@@H](NC(=O)[C@H](Cc1ccccc1)NC(=O)[C@@H](NC(=O)CNC(=O)[C@H](CCC(=O)O)NC(=O)C(C)(C)NC(=O)[C@@H](N)Cc1ccc(O)cc1)[C@@H](C)O)[C@@H](C)O)[C@@H](C)CC)[C@@H](C)CC)C(=O)N[C@@H](C)C(=O)N[C@@H](Cc1ccccc1)C(=O)N[C@H](C(=O)N[C@@H](CCC(N)=O)C(=O)N[C@@H](Cc1c[nH]c2ccccc12)C(=O)N[C@@H](CC(C)C)C(=O)N[C@H](C(=O)N[C@@H](C)C(=O)NCC(=O)NCC(=O)N1CCC[C@H]1C(=O)N[C@@H](CO)C(=O)N[C@@H](CO)C(=O)NCC(=O)N[C@@H](C)C(=O)N1CCC[C@H]1C(=O)N1CCC[C@H]1C(=O)N1CCC[C@H]1C(=O)N[C@@H](CO)C(N)=O)[C@@H](C)CC)C(C)C)C(=O)O [ID NO: 17] (HELM PEPTIDE1{Y.[Aib].E.G.T.F.T.S.D.Y.S.I.A.L.D.K.I.A.Q.K.A.F.V.Q.W.L.I.A.G.G.P.S.S.G.A.P.P.P.S.[am]}|PEPTIDE2{[CCCCCCCCCCCCCCCC(=O)[*:2]].[gGlu]}$PEPTIDE1,PEPTIDE2,20:R3-2:R2$$$V2.0)	45.4	9.72
CCCCCCCCCCCCCCCC(=O)N[C@@H](CCC(=O)NCCCC[C@H](NC(=O)[C@H](CCC(N)=O)NC(=O)[C@H](C)NC(=O)[C@@H](NC(=O)[C@H](CCCCN)NC(=O)[C@H](CC(=O)O)NC(=O)[C@H](CC(C)C)NC(=O)C1(NC(=O)[C@@H](NC(=O)[C@H](CO)NC(=O)[C@H](Cc2ccc(O)cc2)NC(=O)[C@H](CC(=O)O)NC(=O)[C@H](CO)NC(=O)[C@@H](NC(=O)[C@H](Cc2ccccc2)NC(=O)[C@@H](NC(=O)CNC(=O)[C@H](CCC(=O)O)NC(=O)C(C)(C)NC(=O)[C@@H](N)Cc2ccc(O)cc2)[C@@H](C)O)[C@@H](C)O)[C@@H](C)CC)CCCC1)[C@@H](C)CC)C(=O)N[C@@H](C)C(=O)N[C@@H](Cc1ccccc1)C(=O)N[C@H](C(=O)N[C@@H](CCC(N)=O)C(=O)N[C@@H](Cc1c[nH]c2ccccc12)C(=O)N[C@@H](CC(C)C)C(=O)N[C@H](C(=O)N[C@@H](C)C(=O)NCC(=O)NCC(=O)N1CCC[C@H]1C(=O)N[C@@H](CO)C(=O)N[C@@H](CO)C(=O)NCC(=O)N[C@@H](C)C(=O)N1CCC[C@H]1C(=O)N1CCC[C@H]1C(=O)N1CCC[C@H]1C(=O)N[C@@H](CO)C(N)=O)[C@@H](C)CC)C(C)C)C(=O)O [ID NO: 21]	17.8	8.07
